The source of these data is patent US20080207641A1 (Synta Pharmaceuticals Corp., priority 2006, published 2008).

Bounds are passed on as bounds.

Series [1] is described as follows: Solubility of salts (water solubility). The class given is physicochemical. The following applies: for Water Solubility: salts of the parent compound.
A short description of series [2]: Pharmacokinetic profile / oral bioavailability in male SD rats. The class given is in vivo. Conditions: rat; for AUC(0-inf) / AUC(0-t) / Cmax / Tmax / half-life: plasma. As for the experimental part:
The pharmacokinetic profile of 3-fluoro-N-(4-(4-methyl-1-(thiazol-2-yl)-1,2,5,6-tetrahydro pyridin-3-yl)phenyl)isonicotinamide dihydrochloride was studied in male SD rats. Rats were bled at 5 min (IV only), 15 min, 30 min, 1 h, 2 h, 4 h, 6 h, 8 h and 24 h. Samples were prepared by mixing 50 μL of plasma, 5 μL, DMSO, and 250 μL of ACN, followed by shaking for 5 min, centrifuging at 4400 rpm for 15 min at 8° C. 225 μL of supernatant was vacuum dried, reconstituted with 180 μL of 20% ACN (10 mM NH4OAc), shaken for ˜2 min and transferred to 96MT plate. Samples were analyzed by HPLC, Phenomenex Onyx Monolithic C18, 4.6×100 mm column eluted with 30-95% ACN (10 mM NH4OAc) gradient. Detection was at 280 nm.

The solubility is the dissolved amount per volume that the medium holds. What is called bioavailability is the share of a dose that reaches the circulation, judged against a reference dose that is usually intravenous. As a reminder, the AUC(0-inf) is the area under the concentration-time curve extrapolated to infinity. The low end stands for less exposure, the high end for more exposure. The term AUC(0-t) denotes the area under the concentration-time curve up to a stated or last time point. Read a high AUC(0-t) as high exposure. What is called Cmax is the highest concentration seen after dosing. As usually defined, the Tmax is the time at which the peak concentration occurs. By half-life is commonly meant how long it takes for the measured level to halve. A low value points to fast loss. `CC1=C(c2ccc(NC(=O)c3ccncc3F)cc2)CN(c2nccs2)CC1.Cl.Cl` [3-fluoro-N-(4-(4-methyl-1-(thiazol-2-yl)-1,2,5,6-tetrahydropyridin-3-yl)phenyl)isonicotinamide dihydrochloride]: the solubility in series [1] (dihydrochloride salt) was over 12000 µg/mL. Further, the bioavailability in series [2] (in vivo, PO, 50 mg/kg, 0.5% MC, read-out: % F (oral bioavailability)) worked out at 93.4%. Besides, in series [2] (IV, 5 mg/kg, DRD formulation), the AUC(0-inf) was determined as 37.6 µM·h, the AUC(0-t) was found to be 37.5 µM·h, the concentration peaked (Cmax) at 34.6 µM and the Tmax is 0.083 h. In series [2] (IV, 5 mg/kg, DRD formulation), this molecule had a half-life of 1 h. In series [2] (PO, 50 mg/kg, 0.5% MC), the AUC(0-inf) was determined as 351 µM·h, the AUC(0-t) came out at 348 µM·h, the maximum concentration (Cmax) is 43.5 µM and the Tmax came to 2 h. This molecule had a half-life in series [2] (PO, 50 mg/kg, 0.5% MC) of 3.2 h.

As for `CC1=C(c2ccc(NC(=O)c3ccncc3F)cc2)CN(c2nccs2)CC1` [Citrate, 3-fluoro-N-(4-(4-methyl-1-(thiazol-2-yl)-1,2,5,6-tetrahydropyridin-3-yl)phenyl)isonicotinamide], the “Water Solubility” value in series [1] turned out to be 1190 µg/mL.

Regarding `CC1=C(c2ccc(NC(=O)c3ccncc3F)cc2)CN(c2nccs2)CC1` [Compound H2SO4, 3-fluoro-N-(4-(4-methyl-1-(thiazol-2-yl)-1,2,5,6-tetrahydropyridin-3-yl)phenyl)isonicotinamide], the “Water Solubility” value in series [1] is 12690 µg/mL.

`CC1=C(c2ccc(NC(=O)c3ccncc3F)cc2)CN(c2nccs2)CC1` [HBr, 3-fluoro-N-(4-(4-methyl-1-(thiazol-2-yl)-1,2,5,6-tetrahydropyridin-3-yl)phenyl)isonicotinamide]: the “Water Solubility” value in series [1] turned out to be 11560 µg/mL.

For the molecule `CC1=C(c2ccc(NC(=O)c3ccncc3F)cc2)CN(c2nccs2)CC1` [Succinate, 3-fluoro-N-(4-(4-methyl-1-(thiazol-2-yl)-1,2,5,6-tetrahydropyridin-3-yl)phenyl)isonicotinamide], the “Water Solubility” value in series [1] was found to be 360 µg/mL.

On to `CC1=C(c2ccc(NC(=O)c3ccncc3F)cc2)CN(c2nccs2)CC1` [Tartrate, 3-fluoro-N-(4-(4-methyl-1-(thiazol-2-yl)-1,2,5,6-tetrahydropyridin-3-yl)phenyl)isonicotinamide], for which the “Water Solubility” value in series [1] came to 1340 µg/mL.
